The results in this text go back to US20150359794A1, “IMPAIRMENT OF THE LARGE RIBOSOMAL SUBUNIT PROTEIN RPL24 BY DEPLETION OR ACETYLATION” (Buck Institute for Research on Aging, priority 2014, published 2015).

The subject of the assay is RPL24. As to the kind of experiment: LC-MS/MS of RPL24 lysine acetylation (K27, K93) on 60S subunits and polysomes. It is filed as cell-based, human. The conditions noted are these: SKBR3 cells, TSA 1 μM, 2 h. As to the method: Mass spectrometry studies were performed to identify sites of lysine (K) acetylation within RPL24 induced by histone deacetylase inhibition. Continuous and discontinuous sucrose gradient fractionations were performed to isolate 60S subunits and total polysomes respectively. Polyacrylamide gel electrophoresis was then performed on 60S and polysome samples and RPL24-containing bands were excised, trypsin digested, and subjected to mass spectrometry (LC-MS/MS) (FIG. 6a). Among several detected acetylated RPL24 peptides, two were increased by TSA treatment; TDGKacVFQFLNAK (acetyl-K27) (SEQ ID NO:1) and AITGASLADIM*AKacR (acetyl-K93) (SEQ ID NO:2), where the internal lysines in both peptides are N-acetylated (Kac). As the MS experiments of the 60S polysome were performed after in-gel digestion the methionine residue of the second peptide was predominantly oxidized (M*=M+16), as commonly observed during SDS PAGE processing. In independent, in-solution digestion experiments, the corresponding non-oxidized form of acetylated peptide AITGASLADIMAKacR (SEQ ID NO:3) with correlating MS/MS fragmentation pattern was identified. Representative spectra are shown for TDGKacVFQFLNAK (acetyl-K27) (SEQ ID NO:1) and AITGASLADIM*AKacR (acetyl-K93) (SEQ ID NO:2)) (FIG. 11a,b). In 3 biological replicate experiments, the amount of K27-acetylated RPL24, normalized to total protein concentration within the 60S subunit, was increased at least 2-fold within 2 h of TSA treatment. […] Given the proximity of the T. thermophilia RPL24 K26 site (that resides in a homologous region to human K27) to eIF6 (FIG. 7a), these findings implicate involvement of the TSA induced acetylation of RPL24 at K27 in preventing 40S-60S subunit joining and 60S retention of eIF6.
To prepare polysome samples for mass spectrometry, cells are treated with a histone deacetylase inhibitor and polysome pellets are prepared using a discontinuous sucrose gradient as described above. Protein concentration is determined using the Pierce BCA Protein Assay Kit (Thermo Scientific) and equal amount of protein are trypsin digested. Acetyl-lysine immunoprecipitations are carried out on resultant peptides using an antibody from Cell Signaling Technology. Acetyl-proteins are then eluted, extracted, and desalted.
To determine the acetylation status of 60S subunit proteins, cells are treated with histone deacetylase inhibitor and polysome profiles are performed as described above. The four fractions representing the 60S subunit are identified via western blots for Rack1 and RPL24. […]
Three biological replicates of polysome or 60S samples are then analyzed by LC-MS/MS using a quadrupole time-of-flight (QqTOF) TripleTOF 5600 mass spectrometer (AB SCIEX, Dublin, Calif.) coupled to an Eksigent (Dublin, Calif.) nanoLC Ultra, 2D plus. […]

On to `CC(/C=C/C(=O)NO)=C\[C@@H](C)C(=O)c1ccc(N(C)C)cc1` [TSA, trichostatin-A], for which the “RPL24 K93 acetylation within the 60S subunits” value was “not significantly changed”, the “induction of K93 acetylation within RPL24 associated with polysomes” value was 2.5 fold and the “induction of RPL24 K27 acetylation within polysomes” value is reported as “no significant induction”. Also, the “increase of K27-acetylated RPL24 within the 60S subunit, normalized to total protein” value (3 biological replicates) is given as “at least 2 fold”.
